Data published in patent publication US20070111258A1, “Compositions and methods for modulating the acute phase response” (priority 2005, published 2007).

Test system: human CREBH
Experiment: Cleavage of flag-tagged human CREBH stably expressed in H2.35 cells (Western blot, cell fractionation)
Type: cell-based
Protocol: FIG. 3 depicts the effects of ER stress on CREBH: proteolytic cleavage of CREBH to release its N-terminal fragment that translocates into the nucleus. (A) Illustration of transmembrane domains and lumenal domains of SREBP, ATF6, Luman and CREBH in human (hs), mouse (mm). The conserved residues for S1P and S2P recognition are highlighted. (B) Cleavage of CREBH in H2.35 cells under different stimuli. H2.35 cells stably expressing flag-tagged human CREBH were treated with 0.5 μg/ml BFA, 20 ng/ml TNFα, 40 ng/ml IL6, 5 mM DTT, 0.5 μM Tg or 5 μg/ml Tm for 8 hours. Untransfected H2.35 cells (lane 1) and the H2.35 cells that stably express human CREBH (lane 2) were cultured under normal conditions as control. Total cell lysates were collected for Western blot analysis by using an anti-flag monoclonal antibody (upper panel). Levels of α-actin were determined for control of protein loading (lower panel). (C) Cleavage of CREBH in H2.35 cells under Tm treatment for various time periods. The H2.35 cells stably expressing flag-tagged CREBH were cultured in the absence or presence of Tm (5 μg/ml) for 4, 8 or 12 hours. Membrane fractions were isolated from the total cell lysates, and were subjected to Western blot analysis of CREBH and calnexin, respectively. Nuclear fractions were isolated from the same total cell lysates and subjected to Western blot analysis of CREBH and PARP, respectively. (D) Translocation of CREBH in COS7 cells. COS7 cells were co-transfected with a construct expressing flag-tagged full-length CREBH (CREBH-F) or CREBH-ΔC and a construct expressing KDEL-RFP, and were then cultured in the absence or presence of Tm (5 μg/ml) for 4 hours. Cells were then stained with FITC-conjugated anti-flag antibody and subjected to Zeiss Confocal Microscope analysis. Magnification: 40×10.
For analysis of expression and cleavage of CREBH protein, total cell lysates were prepared from H2.35 cells or COS7 cells using Nonidet P-40 lysis buffer (1% NP-40, 50 mM Tris-HCl at pH 7.5, 150 mM NaCl, 0.05% SDS) supplemented with protease inhibitors (Complete Mini from Roche Applied Science), 0.1 mM sodium vanadate, and 1 mM sodium fluoride. Membrane and nuclear fractions of cell lysates were isolated as previously described (Dignam et al., 1983). The total cell lysate, membrane and nuclear fractions were subjected to SDS-PAGE and then analyzed by Western blot using anti-flag monoclonal antibody or other antibodies. Immunoprecipitation and Western blot analyses of ATF6 and CREBH interaction in 293T cells expressing flag-tagged CREBH protein were performed by using anti-human ATF6 and anti-flag antibodies. Total cell lysates from 293T cells transfected with control vector or pFlag-CREBH-ΔC were immunoprecipitated with anti-human ATF6 polyclonal antibody and anti-flag antibody, respectively. The immunoprecipitated cell lysates were then subjected to Western blotting by using anti-flag antibody to detect CREBH protein and using anti-human ATF6 antibody to detect ATF6 protein, respectively. The same total cell lysates were subjected to Western blotting by using anti-flag antibody to detect expression of CREBH protein in the transfected cells. For detecting endogenous CREBH protein in the liver extracts, an anti-mouse CREBH polyclonal antibody was raised in rabbits against a purified mouse CREBH peptide composed of amino acids 92-109 [[…]]. The rabbit anti-human ATF6 polyclonal antibody was generated in the inventor's laboratory. The anti-mouse calnexin monoclonal antibody and the anti-mouse monoclonal PRAP antibody were purchased from Stressgen Biotechnologies (Victoria, BC, Canada) and BD Bioscience (Mountain View, Calif., USA), respectively.

Substance: tunicamycin [Tm]
- cleavage of CREBH to release a 50 kD N-terminal fragment (H2.35 cells stably expressing flag-tagged human CREBH, 8 hours, BFA 0.5 μg/ml, TNFα 20 ng/ml, IL6 40 ng/ml, DTT 5 mM, Tg 0.5 μM, Tm 5 μg/ml): significantly induced cleavage of CREBH
- amount of 50 kD N-terminal cleaved CREBH fragment in the nuclear fraction (Tm 5 μg/ml for 4, 8 or 12 hours): gradually increased with increasing times of Tm treatment
